US8586588B2, “Aryl pyridazinone derivatives and their use as H3 receptor ligands” (Cephalon, Inc., priority 2006, dated 2013)
Structures can show the parent of a compound that is named as a salt.

SMILES | melting point
CC1CC(c2ccc(OCCCN3CCC[C@H]3C)cc2)=NNC1=O (stereo partly drawn) (as salt: HCl) [Example 121, 4-Methyl-6-{4-[3-((R)-2-methyl-pyrrolidin-1-yl)-propoxy]-phenyl}-4,5-dihydro-2H-pyridazin-3-one] | 201 to 203 °C
Cc1cc(-c2ccc(OCCCN3CCC[C@H]3C)cc2)n[nH]c1=O (as salt: HCl) [Example 122, 4-Methyl-6-{4-[3-((R)-2-methyl-pyrrolidin-1-yl)-propoxy]-phenyl}-2H-pyridazin-3-one] | 207 to 208 °C
Cn1nc(-c2ccc(OCCCN3CCC[C@H]3CO)cc2)c2c(c1=O)CCCC2 (as salt: HCl) [Example 124, 4-{4-[3-((S)-2-Hydroxymethyl-pyrrolidin-1-yl)-propoxy]-phenyl}-2-methyl-5,6,7,8-tetrahydro-2H-phthalazin-1-one] | 120 to 122 °C
Cn1nc(-c2cccc(OCCCN3CCCCC3)c2)c2c(c1=O)CCC2 (as salt: HCl) [Example 126, 2-Methyl-4-[3-(3-piperidin-1-yl-propoxy)-phenyl]-2,5,6,7-tetrahydro-cyclopenta[d]pyridazin-1-one] | 189 to 190 °C
Cn1nc(-c2cccc(OCCCN3CCC[C@H]3CO)c2)c2c(c1=O)CCC2 (as salt: HCl) [Example 127, 4-{3-[3-((S)-2-Hydroxymethyl-pyrrolidin-1-yl)-propoxy]-phenyl}-2-methyl-2,5,6,7-tetrahydro-cyclopenta[d]pyridazin-1-one] | 193 to 194 °C
CC(C)n1ncc(-c2ccc(OCCCN3CCC[C@H]3C)cc2)cc1=O (as salt: HCl) [Example 128, 2-Isopropyl-5-{4-[3-((R)-2-methyl-pyrrolidin-1-yl)-propoxy]-phenyl}-2H-pyridazin-3-one] | 251 to 253 °C
O=c1ccc(-c2ccc(OC3CCN(C4CCC4)CC3)nc2)nn1-c1ccccn1 (as salt: HCl) [Example 149, 6-[6-(1-Cyclobutyl-piperidin-4-yloxy)-pyridin-3-yl]-2-pyridin-2-yl-2H-pyridazin-3-one] | 261 to 262 °C
C[C@@H]1CCCN1CCCOc1ccc(C2=NN(c3ccccn3)C(=O)CC2)cc1 (as salt: HCl) [Example 183, 6-{4-[3-((R)-2-Methyl-pyrrolidin-1-yl)-propoxy]-phenyl}-2-pyridin-2-yl-4,5-dihydro-2H-pyridazin-3-one] | 203 to 205 °C
Cc1cc(OCCCN2CCC[C@H]2C)ccc1C1=NNC(=O)CC1 (as salt: HCl) [Example 199, 6-{(R)-2-Methyl-4-[3-(2-methyl-pyrrolidin-1-yl)-propoxy]-phenyl}-4,5-dihydro-2H-pyridazin-3-one] | 121 to 123 °C
C[C@@H]1CCCN1CCCOc1ccc2c(c1)CCc1cc(=O)[nH]nc1-2 (as salt: HCl) [Example 209, 8-[3-((R)-2-Methyl-pyrrolidin-1-yl)-propoxy]-5,6-dihydro-2H-benzo[h]cinnolin-3-one] | 289 to 292 °C
O=C1CCC(c2ccc(OC3CCN(C4CCC4)CC3)cc2F)=NN1 (as salt: HCl) [Example 219, 6-[4-(1-Cyclobutyl-piperidin-4-yloxy)-2-fluoro-phenyl]-4,5-dihydro-2H-pyridazin-3-one] | > 300 °C
COCn1ncc(-c2ccc(OCCCN3CCC[C@H]3C)cc2C)cc1=O (as salt: HCl) [Example 230, 2-Methoxymethyl-5-{2-methyl-4-[3-((R)-2-methyl-pyrrolidin-1-yl)-propoxyl]-phenyl}-2H-pyridazin-3-one] | 139 to 140.5 °C
Cc1cc(OCCCN2CCC[C@H]2C)ccc1-c1cn[nH]c(=O)c1 (as salt: HCl) [Example 231, 5-{2-methyl-4-[3-((R)-2-methyl-pyrrolidin-1-yl)-propoxyl]-phenyl}-2H-pyridazin-3-one] | 186 to 188 °C
COCn1ncc(-c2ccc(OCCCN3CCCCC3)cc2C)cc1=O (as salt: HCl) [Example 232, 2-Methoxymethyl-5-[2-methyl-4-(3-piperidin-1-yl-propoxy)-phenyl]-2H-pyridazin-3-one] | 185 to 197 °C (dec.)
CN1N=C(c2ccc(OC3CCN(C4CCC4)CC3)cc2)C2CC2C1=O (centres unmarked) (as salt: HCl) [Example 252, 5-[4-(1-Cyclobutyl-piperidin-4-yloxy)-phenyl]-3-methyl-3,4-diaza-bicyclo[4.1.0]hept-4-en-2-one] | 243 to 245 °C
O=C1C2CC2C(c2ccc(OC3CCN(C4CCC4)CC3)cc2)=NN1c1ccc(F)cc1 (centres unmarked) (as salt: HCl) [Example 253, 5-[4-(1-Cyclobutyl-piperidin-4-yloxy)-phenyl]-3-(4-fluoro-phenyl)-3,4-diaza-bicyclo[4.1.0]hept-4-en-2-one] | 147 to 149 °C
CN1N=C(c2ccc(OC3CCN(C4CCCC4)CC3)cc2)C2CC2C1=O (centres unmarked) (as salt: HCl) [Example 260, 5-[4-(1-Cyclopentyl-piperidin-4-yloxy)-phenyl]-3-methyl-3,4-diaza-bicyclo[4.1.0]hept-4-en-2-one] | 264 to 266 °C
Cc1ccc(=O)n(-c2ccc(OCCCN3CCC[C@H]3C)cc2)n1 (as salt: fumarate) [Example 201, 6-Methyl-2-{4-[3-((R)-2-methyl-pyrrolidin-1-yl)-propoxy]-phenyl}-2H-pyridazin-3-one] | 168 to 170 °C
C[C@@H]1CCCN1CCCOc1ccc(-n2nc(C3CC3)ccc2=O)cc1 (as salt: fumarate) [Example 262, 6-Cyclopropyl-2-{4-[3-((R)-2-methyl-pyrrolidin-1-yl)-propoxy]-phenyl}-2H-pyridazin-3-one] | 51 to 55 °C
Cc1nn(C)c(=O)cc1-c1ccc(OCCCN2CCCCC2)cc1 (as salt: hydrochloride) [Example 87, 2,6-Dimethyl-5-[4-(3-piperidin-1-yl-propoxy)-phenyl]-2H-pyridazin-3-one] | 210 to 211 °C
C[C@@H]1CCCN1CCCOc1ccc(-c2cnn(C)c(=O)c2)cc1 (as salt: hydrochloride) [Example 91, 2-Methyl-5-{4-[3-((R)-2-methyl-pyrrolidin-1-yl)-propoxy]-phenyl}-2H-pyridazin-3-one] | 222 to 223 °C

Second part, the compound after the results:

melting point | SMILES
227 to 229 °C | Cc1cc(-c2ccc(OCCCN3CCCCC3)cc2)n[nH]c1=O (as salt: HCl) [Example 123, 4-Methyl-6-[4-(3-piperidin-1-yl-propoxy)-phenyl]-2H-pyridazin-3-one]
172 to 174 °C | C[C@@H]1CCCN1CCCOc1cccc(-c2nn(C)c(=O)c3c2CCC3)c1 (as salt: HCl) [Example 125, 2-Methyl-4-{3-[3-((R)-2-methyl-pyrrolidin-1-yl)-propoxy]-phenyl}-2,5,6,7-tetrahydro-cyclopenta[d]pyridazin-1-one]
263 to 265 °C | O=C1CCC(c2ccc(OC3CCN(C4CCC4)CC3)cc2)=NN1c1ccccn1 (as salt: HCl) [Example 158, 6-[4-(1-Cyclobutyl-piperidin-4-yloxy)phenyl]-2-pyridin-2-yl-4,5-dihydro-2H-pyridazin-3-one]
285 to 288 °C | O=C1NN=C(c2ccc(OC3CCN(C4CCC4)CC3)cc2)C2CCC12 (centres unmarked) (as salt: HCl) [Example 172, 5-[4-(1-Cyclobutyl-piperidin-4-yloxy)-phenyl]-3,4-diaza-bicyclo[4.2.0]oct-4-en-2-one]
143 to 145 °C | CC1CC(=O)N(c2ccccn2)N=C1c1ccc(OC2CCN(C3CCC3)CC2)cc1 (centres unmarked) (as salt: HCl) [Example 193, 6-[4-(1-Cyclobutyl-piperidin-4-yloxy)-phenyl]-5-methyl-2-pyridin-2-yl-4,5-dihydro-2H-pyridazin-3-one]
193 to 195 °C | C[C@@H]1CCCN1CCCOc1ccc2c(c1)CCC1CC(=O)NN=C21 (some centres unmarked) (as salt: HCl) [Example 212, 8-[3-(2-Methyl-pyrrolidin-1-yl)-propoxy]-4,4a,5,6-tetrahydro-2H-benzo[h]cinnolin-3-one]
119.5 to 123.5 °C | COCn1ncc(-c2ccc(OC3CCN(C4CCC4)CC3)cc2C)cc1=O (as salt: HCl) [Example 234, 5-[4-(1-Cyclobutyl-piperidin-4-yloxy)-2-methyl-phenyl]-2-methoxymethyl-2H-pyridazin-3-one]
246 to 248 °C | CCN1N=C(c2ccc(OC3CCN(C4CCC4)CC3)cc2)C2CC2C1=O (centres unmarked) (as salt: HCl) [Example 250, 5-[4-(1-Cyclobutyl-piperidin-4-yloxy)-phenyl]-3-ethyl-3,4-diaza-bicyclo[4.1.0]hept-4-en-2-one]
110 to 121 °C | O=C1C2CC2C(c2ccc(OC3CCN(C4CCC4)CC3)cc2)=NN1CC(F)(F)F (centres unmarked) (as salt: HCl) [Example 254, 5-[4-(1-Cyclobutyl-piperidin-4-yloxy)-phenyl]-3-(2,2,2-trifluoro-ethyl)-3,4-diaza-bicyclo[4.1.0]hept-4-en-2-one]
288 to 290 °C | O=C1NN=C(c2ccc(OC3CCN(C4CCCC4)CC3)cc2)C2CC12 (centres unmarked) (as salt: HCl) [Example 261, 5-[4-(1-Cyclopentyl-piperidin-4-yloxy)-phenyl]-3,4-diaza-bicyclo[4.1.0]hept-4-en-2-one]
155 to 159 °C | O=c1ccc(-c2ccccc2)nn1-c1ccc(OC2CCN(C3CCC3)CC2)nc1 (as salt: fumarate) [Example 203, 2-[6-(1-Cyclobutyl-piperidin-4-yloxy)-pyridin-3-yl]-6-phenyl-2H-pyridazin-3-one]
252 to 253 °C | C[C@@H]1CCCN1CCCOc1ccc2cnn(C)c(=O)c2c1 (as salt: hydrochloride) [Example 79, 2-Methyl-7-[3-((R)-2-methyl-pyrrolidin-1-yl)-propoxy]-2H-phthalazin-1-one]
115 °C (dec.) | Cc1n[nH]c(=O)cc1-c1ccc(OCCCN2CCC[C@H]2C)cc1 (as salt: hydrochloride) [Example 88, 6-Methyl-5-{4-[3-((R)-2-methyl-pyrrolidin-1-yl)-propoxy]-phenyl}-2H-pyridazin-3-one]
204 to 206 °C | Cc1n[nH]c(=O)cc1-c1ccc(OCCCN2CCCCCC2)cc1 (as salt: hydrochloride) [Example 90, 5-[4-(3-Azepan-1-yl-propoxy)-phenyl]-6-methyl-2H-pyridazin-3-one]
